Data: publication PMC4987650, “Structural Investigation of Park’s Nucleotide on Bacterial Translocase MraY: Discovery of Unexpected MraY Inhibitors” (Scientific Reports, 2016)

Target: T1, MraYBS (Bacillus subtilis, UniProt Q03521)
T1 construct: MBP; made in house
T1 sequence (Q03521 1-324): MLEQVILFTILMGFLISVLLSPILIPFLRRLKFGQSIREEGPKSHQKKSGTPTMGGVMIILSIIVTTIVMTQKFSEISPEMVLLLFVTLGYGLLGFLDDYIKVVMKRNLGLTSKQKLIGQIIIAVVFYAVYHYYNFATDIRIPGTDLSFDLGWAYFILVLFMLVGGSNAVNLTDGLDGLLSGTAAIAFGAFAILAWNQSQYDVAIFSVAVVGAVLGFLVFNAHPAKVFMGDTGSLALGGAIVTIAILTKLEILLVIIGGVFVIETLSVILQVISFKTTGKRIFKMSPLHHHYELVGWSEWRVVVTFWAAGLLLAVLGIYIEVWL
Assay: HPLC-based MraY functional assay (substrate activity)
Type: biochemical
Method: The purified MraY from Bacillus subtilis was prepared as described in our previous reports. […] […] The reaction mixtures were added by uridine (0.01 mg/mL) as the internal standard and heated to 100 °C to stop the transferring reaction. The samples were analyzed by RP-C18 HPLC with gradient elution of 0.25 M NH4HCO3(aq)/15% MeOH in water (100:0 to 0:100) at a flow rate of 1 mL/min over 45 min, and the peaks of substrates were monitored at UV 260 nm. For 6 and 11–17, the reaction mixture containing MraYBS (10 μg/mL), C55P (200 μM), 6-(7-Nitro-2,1,3-benzoxadiazol-4-ylamino)hexanoic acid (5 μM, internal standard) in 10 μL reaction buffer (30 mM Tris, 10 mM MgCl2, 10 mM NaCl, 0.1 mM Tween-20, 2.5% DMSO, pH 8.0) were pre-incubated at 37 °C for 15 min. […] The reaction mixtures were heated to 100 °C to stop the transferring reaction, and samples were analyzed by an anion-exchange column (SAX1, Supelco Co., 5 μm, 4.6 × 250 mm) with a linear gradient elution of NH4OAc (20 mM to 1 M in MeOH) at a flow rate of 1.0 mL/min over 30 min. The fluorescent substrates were monitored with λex 466 nm/λem 535 nm by fluorescence detector.

SMILES: CC(=O)N[C@H]1[C@@H](OP(=O)(O)OP(=O)(O)OC[C@H]2O[C@@H](n3ccc(=O)[nH]c3=O)[C@H](O)[C@@H]2O)O[C@H](CO)[C@@H](O)[C@@H]1O[C@H](C)C(=O)N[C@@H](C)C(=O)N[C@H](CCC(=O)N[C@@H](CCCCNC(=O)CCCCCNc1ccc([N+](=O)[O-])c2nonc12)C(=O)N[C@H](C)C(=O)N[C@H](C)C(=O)O)C(=O)O [Compound 6, NBD-Park’s nucleotide]
- substrate consumption (C55P (200 μM) as polyprenyl phosphate substrate, substrate 10 μM, within 1 h (60 min)): completely consumed
- Relative activity (WT MraYBS, consumption of 6 in one-hour reaction): 100%
